According to paper PMC11022729 (Advanced Science, 2024):

Tests used:
purified human Slack = target: T1, purified human Slack (Homo sapiens, UniProt Q5JUK3); assay: Differential scanning fluorimetry (DSF) on purified Slack; format: binding; details: 100 µM ligand concentration; for melting temperature Tm of Slack: Tm without ligand 30 °C
T1 construct: NM_02 0822.3, residues 1–1235; green fluorescent protein (GFP) (C, cleaved yes); twin strep-II-tag (C, cleaved yes); made in house; host or cells: HEK293F cells, transient transfection
T1 sequence (Q5JUK3 1-1235 isoform Q5JUK3-3): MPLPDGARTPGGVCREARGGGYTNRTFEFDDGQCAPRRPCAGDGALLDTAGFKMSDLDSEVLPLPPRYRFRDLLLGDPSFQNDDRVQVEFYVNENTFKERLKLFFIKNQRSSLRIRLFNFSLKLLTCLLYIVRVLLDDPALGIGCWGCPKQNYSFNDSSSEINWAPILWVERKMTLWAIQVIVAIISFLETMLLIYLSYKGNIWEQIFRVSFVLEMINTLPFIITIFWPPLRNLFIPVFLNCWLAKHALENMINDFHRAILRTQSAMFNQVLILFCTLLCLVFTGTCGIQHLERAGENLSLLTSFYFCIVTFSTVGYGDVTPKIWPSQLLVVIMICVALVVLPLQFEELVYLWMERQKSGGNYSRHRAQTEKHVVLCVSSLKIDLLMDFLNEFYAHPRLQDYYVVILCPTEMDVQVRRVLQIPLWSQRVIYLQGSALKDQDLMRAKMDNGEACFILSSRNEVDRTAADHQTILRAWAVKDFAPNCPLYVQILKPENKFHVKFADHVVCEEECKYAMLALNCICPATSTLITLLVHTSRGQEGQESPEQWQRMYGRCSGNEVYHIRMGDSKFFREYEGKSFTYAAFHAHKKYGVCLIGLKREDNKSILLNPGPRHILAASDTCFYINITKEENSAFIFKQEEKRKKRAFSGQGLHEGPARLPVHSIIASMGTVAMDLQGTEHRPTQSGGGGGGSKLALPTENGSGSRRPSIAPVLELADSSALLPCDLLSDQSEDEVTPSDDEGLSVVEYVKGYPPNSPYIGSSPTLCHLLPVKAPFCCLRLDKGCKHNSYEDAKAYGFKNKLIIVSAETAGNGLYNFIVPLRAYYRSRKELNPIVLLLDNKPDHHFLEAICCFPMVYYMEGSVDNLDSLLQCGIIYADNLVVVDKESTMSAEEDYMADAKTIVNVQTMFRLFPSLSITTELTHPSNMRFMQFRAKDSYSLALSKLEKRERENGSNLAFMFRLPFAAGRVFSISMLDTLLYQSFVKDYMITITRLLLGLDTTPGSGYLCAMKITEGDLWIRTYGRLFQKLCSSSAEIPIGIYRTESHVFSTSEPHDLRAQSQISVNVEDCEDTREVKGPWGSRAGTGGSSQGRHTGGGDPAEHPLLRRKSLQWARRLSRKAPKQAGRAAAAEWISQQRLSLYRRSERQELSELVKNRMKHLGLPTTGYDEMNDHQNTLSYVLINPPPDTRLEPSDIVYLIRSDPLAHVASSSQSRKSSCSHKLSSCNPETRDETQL
Procedure: To confirm that the cellular effect of compound 6 was mediated by its direct interaction with Slack, ligand binding on purified human Slack (Figure S6A, Supporting Information) was assessed by differential scanning fluorimetry (DSF), thereby evaluating a ligand‐dependent shift of the protein melting temperature (T m). The cysteine‐reacting dye 7‐diethylamino‐3‐(4‐maleimidophenyl)−4‐methylcoumarin (CPM), which binds to cysteine residues that are accessible during protein unfolding, was used as an indicator for protein unfolding. […] In the presence of a Slack inhibitor (compound 31 from ref. [27]), known to directly interact with the protein and therefore used as a positive control, T m saturated at 45.7 ± 3.2 °C at a ligand concentration of 100 µM (Figure S6B, Supporting Information), indicating a notable stabilization of Slack.
The melting temperature was determined from the fluorescence of 7‐diethylamino‐3‐(4‐maleimidophenyl)−4‐methylcoumarin (CPM) dye. […] Five microliters of the CPM dye (15 µg mL^−1 CPM final concentration) in the SEC buffer was added to the protein compound mixture and further incubated for 30 min on ice in the dark. The samples were centrifuged at 15 000 × g at 4 °C for 10 min to remove aggregates. Melting curves were recorded in an RT‐PCR (Thermo Fischer) using a temperature range of 10–80 °C in 1 °C‐increments, increasing every 75 s. The CPM dye was excited at a wavelength of 365 nm and the emission was measured at 470 nm.

mice [1] = assay: SLIGRL-induced itch behavior; format: in vivo, mouse; details: 10 mg kg−1 i.p.
Excerpt: Chloroquine‐induced scratching in mice is driven by MrgprA3 activation in the NP2 population of sensory neurons.^[ [10], [29] ^] To further explore the antipruritic efficacy of compound 6 in histamine‐independent itch, we assessed the behavioral response after s.c. injection of the peptide Ser‐Leu‐Ile‐Gly‐Arg‐Leu (SLIGRL) that evokes scratching by activation of MrgprC11,^[ [30] ^] which is expressed in the NP2 and NP3 population.^[ [10] ^] […] Moreover, compound 6 ameliorated histamine‐independent itch evoked by s.c. injection of β‐alanine that activates MrgprD^[ [31] ^] in the NP1 population of sensory neurons^[ [10] ^] (Figure 3F). In contrast, scratching induced by subcutaneous histamine was not affected by compound 6 (Figure 3G). The lack of an effect on histamine‐evoked scratching was supported by the low affinity of compound 6 for histamine H1 receptors, which was determined using a [^3H]‐pyrilamine competition binding assay in vitro (Table S3, Supporting Information). […] We also investigated the efficacy of compound 6 after peroral (p.o.) delivery.
Three to four days before the day of the experiment, the fur on the dorsolateral aspect of the neck was shaved under brief isoflurane anesthesia. […] Number of scratching bouts directed toward the nape of the neck was assessed over 30 min by videotaping. […]

mice [2] = assay: Pulse oximetry in conscious, freely moving mice; details: 10 mg kg−1 i.p., observation period of 30 min
Procedure: To measure cardiovascular function, a pulse oximeter (MouseOX Plus, Starr Life Sciences Corp.) was used in conscious, freely moving mice. After three consecutive days of habituating the mice to the collar clip for at least 30 min, baseline measurements were performed. […] All the datasets were sampled at 1 Hz, error‐corrected according to the manufacturer's instructions, and averaged over 300 s for each time point.

| Compound | increase in Tm (purified human Slack) | melting temperature Tm of Slack (purified human Slack) | SLIGRL-induced scratching behavior (mice [1]) | breath rate (mice [2]) | heart rate (mice [2]) |
| --- | --- | --- | --- | --- | --- |
| O=C(O)COCCN1CCN(C2=Nc3ccccc3Oc3ccc(Cl)cc32)CC1 [Compound 6] | 9.3 °C | 39.3 ± 0.9 °C | significantly inhibited | did not affect | did not affect |
| CN1CCN(C2=Nc3ccccc3Oc3ccc(Cl)cc32)CC1 [Loxapine, reference compound] | 7.8 °C | 37.8 ± 1.3 °C |  |  |  |
